The values below come from ChEMBL document CHEMBL3779854, “Biological evaluation and molecular docking studies of new curcuminoid derivatives: Synthesis and characterization” (Bioorg Med Chem Lett, 2016).

Data set [1] is described as follows: Antioxidant activity assessed as DPPH free radical scavenging activity by UV-visible spectrophotometric analysis. Type of data set: physicochemical.
Data set [2] can be described thus: Antioxidant activity assessed as H2O2 scavenging activity. Type of data set: physicochemical.
Data set [3] is described as follows: Antiinflammatory activity assessed as inhibition of albumin denaturation after 15 mins by BSA assay. Type of data set: functional.
The test system of data set [4] is Escherichia coli. As to the kind of experiment: Antibacterial activity against Escherichia coli ATCC 25922 at 10 ug after 24 hrs by well diffusion method. The class given is functional, organism-based. A general note: A growth-free zone around the sample is the usual read-out of agar diffusion tests.
Data set [5] deals with Staphylococcus aureus. In words: Antibacterial activity against Staphylococcus aureus ATCC 25923 at 50 ug after 24 hrs by well diffusion method. Type of data set: functional, organism-based.
In data set [6] the test system is Staphylococcus aureus. As to the kind of experiment: Antibacterial activity against Staphylococcus aureus ATCC 25923 at 10 ug after 24 hrs by well diffusion method. Type of data set: functional, organism-based.
The subject of data set [7] is Escherichia coli. As to the kind of experiment: Antibacterial activity against Escherichia coli ATCC 25922 at 50 ug after 24 hrs by well diffusion method. Type of data set: functional, organism-based.
In data set [8] the test system is Pseudomonas aeruginosa. As to the kind of experiment: Antibacterial activity against Pseudomonas aeruginosa ATCC 27853 at 50 ug after 24 hrs by well diffusion method. Type of data set: functional. As to conditions: for zone of inhibition at 50 µg/disc: ATCC 27853, 24 h, read-out: IZ.
The subject of data set [9] is Klebsiella pneumoniae. As to the kind of experiment: Antibacterial activity against Klebsiella pneumoniae ATCC 13883 at 50 ug after 24 hrs by well diffusion method. Type of data set: functional, organism-based.

Molecules are shown by their SMILES. Converted amounts (≈) assume the structure as drawn. The source made the active and inactive calls. The rule behind the calls is not given here.

The IC50 is the midpoint of a concentration-inhibition curve. With `CN(C)c1ccc(/C=C/C(=O)/C(CNc2ccccc2)=C(O)/C=C/c2ccc(N(C)C)cc2)cc1`, the IC50 in data set [1] amounted to 79.06 µg/mL (≈ 169 µM); in data set [2] it was 52.13 µg/mL (≈ 111 µM); in data set [3] it was 808.36 µg/mL (≈ 1730 µM). For the same compound, the outcome in data set [4], in data set [5] and in data set [6] was Active.

On to `COc1cc(/C=C/C(=O)CC(=O)/C=C/c2ccc(O)c(OC)c2)ccc1O` [CURCUMIN], for which the IC50 in data set [1] came to 52.51 µg/mL (≈ 143 µM); in [2] it was 52.24 µg/mL (≈ 142 µM); in data set [3] it was 129.85 µg/mL (≈ 352 µM). The result in data set [7], in data set [4], in data set [5], in data set [6] and in [9] was Active. In [8], the zone of inhibition at 50 µg/disc is 11 mm.

On to `CN(C)c1ccc(/C=C/C(=O)/C(CNc2ccc(F)cc2)=C(O)/C=C/c2ccc(N(C)C)cc2)cc1`, for which the IC50 in data set [1] was found to be 48.16 µg/mL (≈ 99.2 µM); in [2], 46.9 µg/mL (≈ 96.6 µM); in data set [3] it was 226.71 µg/mL (≈ 467 µM). Moreover, the result in data set [7], in data set [4] and in data set [9] was Active. The zone of inhibition at 50 µg/disc in data set [8] is 12 mm. Besides, the result in data set [6] was inactive.

Regarding `COc1cc(C=C(C(=O)/C=C/c2ccc(N(C)C)cc2)C(=O)/C=C/c2ccc(N(C)C)cc2)ccc1O`, the IC50 worked out at 75.37 µg/mL (≈ 152 µM) in data set [1], 44.95 µg/mL (≈ 90.5 µM) in [2] and 106.16 µg/mL (≈ 214 µM) in [3]. For the same compound, the result in data set [7], in data set [4] and in data set [8] was Active.

In the case of `O=C([O-])Cc1ccccc1Nc1c(Cl)cccc1Cl.[Na+]` [DICLOFENAC SODIUM], the IC50 in data set [3] was determined as 52.95 µg/mL.

In the case of `COc1ccccc1NC/C(C(=O)/C=C/c1ccc(N(C)C)cc1)=C(O)\C=C\c1ccc(N(C)C)cc1`, the half-maximal inhibitory concentration (IC50) in data set [1] amounted to 76.28 µg/mL (≈ 153 µM); in data set [2], 53.94 µg/mL (≈ 108 µM); in [3], 81.36 µg/mL (≈ 163 µM). For the same compound, the result in data set [4] and in [5] was Active.

In the case of `CN(C)c1ccc(/C=C/c2cc(/C=C/c3ccc(N(C)C)cc3)[nH]n2)cc1`, the IC50 came to 46.05 µg/mL (≈ 128 µM) in data set [1], 50.78 µg/mL (≈ 142 µM) in data set [2] and 51.79 µg/mL (≈ 144 µM) in [3]. The result in [4], in data set [8] and in [9] was Active. Also, the result in data set [6] was inactive.

For `CN(C)c1ccc(/C=C/c2cc(/C=C/c3ccc(N(C)C)cc3)n(-c3ccc(F)cc3)n2)cc1`, the values for the IC50 in data set [1], in data set [2] and in data set [3] were 74.38 µg/mL (≈ 164 µM), 89.05 µg/mL (≈ 197 µM) and 216.32 µg/mL (≈ 478 µM), respectively. Besides, the result in data set [7], in [4], in data set [5] and in data set [9] was Active.

Turning to `CN(C)c1ccc(/C=C/C(=O)/C=C(O)/C=C/c2ccc(N(C)C)cc2)cc1`, the IC50 in data set [1] is 78.52 µg/mL (≈ 217 µM); in data set [2], 74.56 µg/mL (≈ 206 µM); in data set [3], 180.38 µg/mL (≈ 498 µM).

Turning to `COc1ccc(-n2nc(/C=C/c3ccc(N(C)C)cc3)cc2/C=C/c2ccc(N(C)C)cc2)cc1`, the IC50 in [1] came out at 88.05 µg/mL (≈ 190 µM); in data set [2] it was 79.59 µg/mL (≈ 171 µM); in data set [3] it was 751.12 µg/mL (≈ 1620 µM). In addition, the outcome in data set [4] was Active. Besides, the outcome in [6] was inactive.

Consider `CN(C)c1ccc(/C=C/c2cc(/C=C/c3ccc(N(C)C)cc3)n(-c3ccccc3)n2)cc1`, for which the IC50 in data set [1] amounted to 74.03 µg/mL (≈ 170 µM); in data set [2], 72.42 µg/mL (≈ 167 µM); in data set [3], 29.44 µg/mL (≈ 67.7 µM). In addition, the outcome in [7], in data set [4], in [5] and in data set [6] was Active.

On to `O=C1O[C@H]([C@@H](O)CO)C(O)=C1O` [ASCORBIC ACID], for which the figures for the IC50 in data set [1] and in [2] were 65.53 µg/mL (≈ 372 µM) and 68.82 µg/mL (≈ 391 µM), respectively.

`CN(C)c1ccc(/C=C/C(=O)/C(CNc2cccc(C(F)(F)F)c2)=C(O)/C=C/c2ccc(N(C)C)cc2)cc1`: the results for the IC50 in [1], in [2] and in [3] were 81.69 µg/mL (≈ 153 µM), 74.6 µg/mL (≈ 139 µM) and 186.05 µg/mL (≈ 347 µM), respectively. Moreover, the result in data set [4] and in data set [6] was inactive.
